What was measured:
[1] = Water solubility noted at synthesis; format: physicochemical; conditions: noted for the isolated crystal
Method: 3.58 g of 3-methyl-1-phenyl-5-pyrazolone (hereinafter also referred to as “edaravone”), 2.59 g of malonaldehyde dianilide hydrochloride, and 20 ml of ethanol were added to a reactor and dissolved. To the obtained solution, 2.04 g of triethylamine and 0.4 ml of water were added and stirred for 1 hour at room temperature (about 25° C.; hereinafter, the same applies). After the stirring, the resultant was further reacted for 1 hour at 50° C. After discharging the obtained reaction solution to 100 ml of 1N hydrochloric acid, the mixture was sufficiently stirred and the precipitate was filtered. The resulting cake was washed with water. The cake was added to 200 ml of an aqueous sodium hydroxide solution having a 1% by weight concentration and completely dissolved by heating with stirring. Next, the dissolved solution was stirred for 3 hours after cooling to room temperature. Then, the liquid containing the obtained precipitate was filtered, and then the cake was washed with water. […] Note that the melting point of ED2AP was 249° C., which was water-soluble.
3 ml of dimethylformamide was added to a reactor and the exterior of the reactor was cooled with ice water. 1.75 g of phosphorus oxychloride was slowly dropped into the reactor (Reaction Solution A). In another reactor, 1.78 g of edaravone was dissolved in 5 ml of dimethylformamide (Reaction Solution B). […]

[2] = Storage stability in pH7.4-PBS or pure water at 37° C., residual rate by HPLC; format: physicochemical; conditions: for Residual rate (%) After 1 week / Residual rate (%) After 2 weeks: 200 μmol/1, 37° C., protected from light; for Residual rate (%) Initial concentration: 200 μmol/1, initial concentration (100%) being a reference
Method: The storage stability of edaravone, EMPO, ED2AP, and BisEp-C3 of the following formula (A) were examined. Specifically, edaravone, EMPO, ED2AP, and BisEp-C3 were dissolved in pH7.4-PBS or pure water so as to have a final concentration of 200 μmol/1 to prepare dissolved solutions of these compounds. When the compounds were difficult to be dissolved, they were dissolved in an ultrasonic cleaner with warm water at 40° C.
Under the measurement conditions for High-Performance Liquid Chromatography (HPLC) described below, the initial concentration was quantified, and then each solution was stored in an oven, which was protected from light, at 37° C., and quantified under the same measurement conditions after 1 week and 2 weeks, to determine residual rate (%) with the initial concentration (100%) being a reference.
Measurement Conditions for HPLC
High-Performance Liquid Chromatography (Shimadzu Corporation)
Data-processing software (Model: LCsolution Ver. 1.0, produced by Shimadzu Corporation)
Pump (Model: LC-20AD; produced by Shimadzu Corporation)
Column oven (Model: CTO-20A; produced by Shimadzu Corporation)
Autosampler (Model: SIL-20A; produced by Shimadzu Corporation)
PDA detector (Format: SPD-M20A)
Column: Atlantis dC18 5 μm (250×4.6 mm I.D.; produced by Waters)
Column temperature: 45° C.
Detection method: UV (254 nm)
Eluate A: pH3 buffer solution (adjusted to pH3 by adding phosphoric acid to 0.05M KH2PO4 aqueous solution)/methanol=90/10

[3] = test system: blood vessel of the mesentery; test: LPS-induced vascular disorder of the mesentery, bleeding and leukocyte rolling; format: in vivo, rat
Excerpt: Eight-week-old or older female rats (Wistar, body weight: approximately 200 g, n=1) were anesthetized by subcutaneous administration of urethane (1.75 g/kg body weight). The rats were then opened and fixed on a fixing table in such a manner that the mesentery of the rats was observable. After the fixing, the fixing table was placed under a microscope (Nikon OPTIphoto, produced by Nikon Corporation) so that the mesentery could be observed. In addition, a catheter was placed in the groin vein of the rat.
1μg/ml of lipopolysaccharide (LPS) (produced by Sigma-Aldrich Co., Ltd.) derived from Pseudomonas aeruginosa (ATCC27316) was added dropwise once (20 μl, 20 ng/sight) and allowed to stand for 30 minutes. Next, a saline solution containing BisEP-C3 prepared in the same manner as in Example 9 was rapidly administered intravenously via the catheter so as to be 1 mg/kg body weight. After the intravenous administration, the saline solution was administered continuously so as to be 1 mg/kg body weight per hour (0.15 ml/hour). […] In the obtained photograph, the area of the region where bleeding occurred (bleeding area) was detected based on the number of pixels, and then the proportion of the area (bleeding area proportion) occupied per visual field was calculated. […]

| solubility in water [1] | Residual rate (%) After 1 week ([2]; Pure water) [%] | Residual rate (%) After 2 weeks ([2]; Pure water) [%] | Residual rate (%) Initial concentration ([2]; Pure water) [%] | Residual rate (%) After 1 week ([2]; pH 7.4-PBS) [%] | Residual rate (%) After 2 weeks ([2]; pH 7.4-PBS) [%] | Residual rate (%) Initial concentration ([2]; pH 7.4-PBS) [%] | SMILES | bleeding area and bleeding area proportion ([3]; LPS instillation, 1 mg/kg intravenously then 1 mg/kg per hour, up to 180 minutes, FIGS. 12 and 13) | rolling phenomena of leukocytes ([3]; after LPS instillation, compared to the control) |
| --- | --- | --- | --- | --- | --- | --- | --- | --- | --- |
| water-soluble | 96.1 | 89.8 | 100 | 96.2 | 91.3 | 100 | CC1=NN(c2ccccc2)C(=O)/C1=C/C=C/c1c(C)nn(-c2ccccc2)c1O [ED2AP, 2,4-dihydro-4-[3-(5-hydroxy-3-methyl-1-phenyl-1H-pyrazol-4-yl)-2-propen-1-ylidene]-5-methyl-2-phenyl-3H-pyrazol-3-one] |  |  |
| water-soluble | 99.4 | 88.5 | 100 | 98.7 | 93.6 | 100 | CCN1N=C(C)/C(=C\C=C\c2c(C)nn(CC)c2O)C1=O [BisEp-C3, 2,4-dihydro-4-[3-(1-ethyl-5-hydroxy-3-methyl-1H-pyrazol-4-yl)-2-propen-1-ylidene]-2-ethyl-5-methyl-3H-pyrazol-3-one] | no bleeding was observed | a large number of rolling phenomena of leukocytes were observed |

— patent publication US12569470B2, “Vasodilator and use thereof” (Bioradical Research Institute Corp., priority 2019, dated 2026)
